This note sets out measurements from US12404242B2, “Compositions and methods for making and using small molecules in the treatment of cancer” (Reglagene, Inc., priority 2021, dated 2025).

Structures are written as SMILES.

Type in all cases: cell-based, human
Common to all, as to conditions: 72 hours of treatment

One experiment relates to LNCaP cells. As to the kind of experiment: Cell viability (AlamarBlue), LNCaP prostate cancer cells. Further details: key to EC50 (μM) in LNCaP cells: Inactive: less than 50% inhibition at the highest concentration tested at 50 μM. Here is the method:
(§1) In another exemplary method, half maximal effective concentration (EC50) was determined for some compounds and their isomers as disclosed herein in a variety of human cancer cell lines. In brief, cells from two prostate cancer cell lines (LNCaP, 22RV1), one glioblastoma cell line (U87), one breast cancer cell line (MCF7), a glioma cell line (LN18), a normal prostate cell line (RWPE1), and a glioblastoma cell line (T98G) were plated in a multi-well plate. After 24 hours, one of the compounds herein was added to the well at increasing concentrations. After 72 hours of treatment, cell viability was assessed using AlamrBlue® (Invitrogen) and fluorescence was read using the CLARIOstar Plus Multilabel Plate Reader (BMG Labtech). Samples were normalized to no treatment controls. EC50 values were determined using GraphPad Prism.
Background: The colour change of resazurin is a common sign of viable cells or microbes.

A further experiment relates to 22RV1 cells. Briefly: Cell viability (AlamarBlue), 22RV1 prostate cancer cells. Also on record: key to EC50 (μM) in 22RV1 cells: Inactive: less than 50% inhibition at the highest concentration tested at 50 μM. The procedure:
as §1

The test system of another experiment is U87 cells. Briefly: Cell viability (AlamarBlue), U87 glioblastoma cells. Further details: key to EC50 (μM) in U87 cells: Inactive: less than 50% inhibition at the highest concentration tested at 50 μM. The procedure: as §1

Consider `Cc1cc(NC(=O)NC(=O)C2CCOC2)ccc1Oc1ncc(Cl)cn1` (racemic) [Compound 5, rac-1-{4-[(5-chloropyrimidin-2-yl)oxy]-3-methylphenyl}-3-[(3R)-oxolane-3-carbonyl]urea], for which, in the experiment with LNCaP cells, the “EC50 (μM) in LNCaP cells” value is given as “Inactive”. Besides, the “EC50 (μM) in 22RV1 cells” value in the experiment with 22RV1 cells is recorded as “Inactive”.
Regarding `COC1CCC(C(=O)NC(=O)Nc2ccc(Oc3ncc(C)cn3)c(C)c2)CC1` (single isomer, unassigned) [Compound 27A, 4-methoxy-N-((3-methyl-4-((5-methylpyrimidin-2-yl)oxy)phenyl)carbamoyl)cyclohexane-1-carboxamide], the concentration for a half-maximal effect (EC50) with LNCaP cells came to 1.3 µM; with 22RV1 cells, 2.8 µM; in the experiment on U87 cells, 2.1 µM.
The corresponding values for `COC1CCC(C(=O)NC(=O)Nc2ccc(Oc3ncc(C)cn3)c(C)c2)CC1` (single isomer, unassigned) [Compound 27B, 4-methoxy-N-((3-methyl-4-((5-methylpyrimidin-2-yl)oxy)phenyl)carbamoyl)cyclohexane-1-carboxamide] are 9.8 µM, 25 µM and 23.3 µM.
Turning to `COC1CCC(C(=O)NC(=O)Nc2ccc(Oc3ccc(C(C)C)cn3)c(C)c2)CC1` (single isomer, unassigned) [Compound 34A, N-((4-((5-isopropylpyridin-2-yl)oxy)-3-methylphenyl)carbamoyl)-4-methoxycyclohexane-1-carboxamide], the EC50 in the experiment on LNCaP cells (Homo sapiens, LNCaP, 72 h) amounted to 1.2 µM; in the experiment on 22RV1 cells (Homo sapiens, 22Rv1, 72 h), 5.9 µM; with U87 cells (Homo sapiens, U-87 MG, 72 h), 5.5 µM.
In the case of `COC1CCC(C(=O)NC(=O)Nc2ccc(Oc3ccc(C(C)C)cn3)c(C)c2)CC1` (single isomer, unassigned) [Compound 34B, N-((4-((5-isopropylpyridin-2-yl)oxy)-3-methylphenyl)carbamoyl)-4-methoxycyclohexane-1-carboxamide], in the experiment with LNCaP cells, the “EC50 (μM) in LNCaP cells” value is listed as “Inactive”. Besides, the “EC50 (μM) in 22RV1 cells” value in the experiment with 22RV1 cells was “Inactive”. The “EC50 (μM) in U87 cells” value in the experiment with U87 cells was “Inactive”.
Consider `Cc1cc(NC(=O)NC(=O)C2CCCC2)ccc1Oc1ncc(Cl)cn1` [Compound 3, 1-{4-[(5-chloropyrimidin-2-yl)oxy]-3-methylphenyl}-3-cyclopentanecarbonylurea], for which the “EC50 (μM) in LNCaP cells” value in the experiment on LNCaP cells is on record as “Inactive”. Also, the “EC50 (μM) in 22RV1 cells” value with 22RV1 cells is reported as “Inactive”.
Turning to `Cc1cc(NC(=O)NC(=O)C2CCOCC2)ccc1Oc1ncc(Cl)cn1` [Compound 4, 3-{4-[(5-chloropyrimidin-2-yl)oxy]-3-methylphenyl}-1-(oxane-4-carbonyl)urea], the “EC50 (μM) in LNCaP cells” value in the experiment on LNCaP cells is “Inactive”. The “EC50 (μM) in 22RV1 cells” value in the experiment on 22RV1 cells is “Inactive”.
On to `COC1CCC(C(=O)NC(=O)Nc2ccc(Oc3nccn3C)c(C)c2)CC1` (centres unmarked) [Compound 28, 1-(4-methoxycyclohexanecarbonyl)-3-{3-methyl-4-[(1-methyl-1H-imidazol-2-yl)oxy]phenyl}urea], for which the “EC50 (μM) in LNCaP cells” value in the experiment with LNCaP cells was “Inactive”. Besides, in the experiment with 22RV1 cells, the “EC50 (μM) in 22RV1 cells” value is “Inactive”. Moreover, in the experiment on U87 cells, the “EC50 (μM) in U87 cells” value is “Inactive”.
With `COC1CCC(C(=O)NC(=O)Nc2ccc(Oc3ncc(C(F)(F)F)cn3)c(C)c2)CC1` (centres unmarked) [Compound 29, 1-(4-methoxycyclohexanecarbonyl)-3-(3-methyl-4-{[5-(trifluoromethyl)pyrimidin-2-yl)oxy}phenyl)urea], the EC50 with LNCaP cells (Homo sapiens, LNCaP, 72 h) was 6.5 µM; with 22RV1 cells (Homo sapiens, 22Rv1, 72 h), 4.7 µM; with U87 cells (Homo sapiens, U-87 MG, 72 h), 5.3 µM.
The corresponding values for `COC1CCC(C(=O)NC(=O)Nc2ccc(Oc3ncc(C(C)C)cn3)c(C)c2)CC1` (centres unmarked) [Compound 30, 1-(4-methoxycyclohexanecarbonyl)-3-(3-methyl-4-{[5-(propan-2-yl)pyrimidin-2-yl)oxy}phenyl)urea] are 8.5 µM, 14.4 µM and 12.2 µM.
Regarding `COC1CCC(C(=O)NC(=O)Nc2ccc(Oc3ccc(C)cn3)c(C)c2)CC1` (centres unmarked) [Compound 32, 1-(4-methoxycyclohexanecarbonyl)-3-{3-methyl-4-[(5-methylpyridin-2-yl)oxy]phenyl}urea], the EC50 in the experiment on LNCaP cells (Homo sapiens, LNCaP, 72 h) was 34 µM; in the experiment with 22RV1 cells (Homo sapiens, 22Rv1, 72 h), 35 µM. Further, the “EC50 (μM) in U87 cells” value with U87 cells is recorded as “Inactive”.
For `COC1CCC(C(=O)NC(=O)Nc2ccc(Oc3ccc(C(F)(F)F)cn3)c(C)c2)CC1` (centres unmarked) [Compound 33, 4-methoxy-N-((3-methyl-4-((5-(trifluoromethyl)pyridin-2-yl)oxy)phenyl)carbamoyl)cyclohexane-1-carboxamide], the “EC50 (μM) in LNCaP cells” value with LNCaP cells was “Inactive”. Besides, the “EC50 (μM) in 22RV1 cells” value with 22RV1 cells is listed as “Inactive”. Moreover, in the experiment with U87 cells, the “EC50 (μM) in U87 cells” value is listed as “Inactive”.
Consider `COC1CC(C(=O)NC(=O)Nc2ccc(Oc3cnc(N4CCN(C)CC4)nc3)c(C)c2)C1` (centres unmarked) [Compound 35, 3-methoxy-N-((3-methyl-4-((2-(4-methylpiperazin-1-yl)pyrimidin-5-yl)oxy)phenyl)carbamoyl)cyclobutane-1-carboxamide], for which the “EC50 (μM) in LNCaP cells” value with LNCaP cells is “Inactive”. The “EC50 (μM) in 22RV1 cells” value with 22RV1 cells was “Inactive”. In the experiment with U87 cells (Homo sapiens, U-87 MG, 72 h), this compound yielded an EC50 of 49 µM.
Regarding `COC1CCC(C(=O)NC(=O)Nc2ccc(Oc3cnc(N4CCN(C)CC4)nc3)c(C)c2)CC1` (centres unmarked) [Compound 36, 4-methoxy-N-((3-methyl-4-((2-(4-methylpiperazin-1-yl)pyrimidin-5-yl)oxy)phenyl)carbamoyl)cyclohexane-1-carboxamide], the EC50 stood at 34 µM in the experiment with LNCaP cells (Homo sapiens, LNCaP, 72 h); 34 µM in the experiment with 22RV1 cells (Homo sapiens, 22Rv1, 72 h); 31 µM in the experiment on U87 cells (Homo sapiens, U-87 MG, 72 h).
`O=C(NC(=O)C1CCC(OCC2CC2)CC1)Nc1ccc(Oc2ncc(Cl)cn2)c(F)c1` (centres unmarked) [Compound 37, N-((4-((5-chloropyrimidin-2-yl)oxy)-3-fluorophenyl)carbamoyl)-4-(cyclopropylmethoxy)cyclohexane-1-carboxamide]: the “EC50 (μM) in LNCaP cells” value in the experiment on LNCaP cells is recorded as “Inactive”. The “EC50 (μM) in 22RV1 cells” value with 22RV1 cells is on record as “Inactive”. The “EC50 (μM) in U87 cells” value in the experiment on U87 cells is “Inactive”.
Take `COC1(C(=O)NC(=O)Nc2ccc(Oc3ccc(Cl)cn3)c(C)c2)CC1` [Compound 65, N-((4-((5-chloropyridin-2-yl)oxy)-3-methylphenyl)carbamoyl)-1-methoxycyclopropane-1-carboxamide]: in the experiment with 22RV1 cells, the “EC50 (μM) in 22RV1 cells” value is recorded as “Inactive”. In the experiment on U87 cells, the “EC50 (μM) in U87 cells” value is on record as “Inactive”.
With `COC1CC(C(=O)NC(=O)Nc2cc(C)c(Oc3ccc(F)cn3)c(F)c2)C1` (centres unmarked) [Compound 72, N-((3-fluoro-4-((5-fluoropyridin-2-yl)oxy)-5-methylphenyl)carbamoyl)-3-methoxycyclobutane-1-carboxamide], the EC50 in the experiment on 22RV1 cells (Homo sapiens, 22Rv1, 72 h) is 0.91 µM; in the experiment with U87 cells (Homo sapiens, U-87 MG, 72 h), 1.1 µM.
Taken in the same sequence, the figures for `COC1CC(C(=O)NC(=O)Nc2cc(C)c(Oc3ncccn3)c(F)c2)C1` (centres unmarked) [Compound 74, N-((3-fluoro-5-methyl-4-(pyrimidin-2-yloxy)phenyl)carbamoyl)-3-methoxycyclobutane-1-carboxamide] were 1.65 µM and 2.5 µM.
In the case of `COC1CCC(C(=O)NC(=O)Nc2ccc(Oc3ccc(C4CC4)cn3)c(C)c2)CC1` (centres unmarked) [Compound 75, N-((4-((5-cyclopropylpyridin-2-yl)oxy)-3-methylphenyl)carbamoyl)-4-methoxycyclohexane-1-carboxamide], the “EC50 (μM) in U87 cells” value in the experiment on U87 cells is recorded as “Inactive”.
`COC1CC(C(=O)NC(=O)Nc2cc(C)c(Oc3nccs3)c(F)c2)C1` (centres unmarked) [Compound 77, N-((3-fluoro-5-methyl-4-(thiazol-2-yloxy)phenyl)carbamoyl)-3-methoxycyclobutanecarboxamide] came in with an EC50 in the experiment on U87 cells (Homo sapiens, U-87 MG, 72 h) of 22 µM.
As to `COC1CC(C)(C(=O)NC(=O)Nc2ccc(Oc3ccc(Cl)cn3)c(C)c2)C1` (centres unmarked) [Compound 79, N-((4-((5-chloropyridin-2-yl)oxy)-3-methylphenyl)carbamoyl)-3-methoxy-1-methylcyclobutane-1-carboxamide], the “EC50 (μM) in U87 cells” value with U87 cells is “Inactive”.
Turning to `Cc1cc(NC(=O)NC(=O)C2CC(O)C2)ccc1Oc1ccc(Cl)cn1` (centres unmarked) [Compound 80, N-((4-((5-chloropyridin-2-yl)oxy)-3-methylphenyl)carbamoyl)-3-hydroxycyclobutane-1-carboxamide], the “EC50 (μM) in U87 cells” value in the experiment with U87 cells was “Inactive”.
Same read-out and setting: the value for `COC1CC1C(=O)NC(=O)Nc1ccc(Oc2ncc(Cl)cn2)c(C)c1` (centres unmarked) [Compound 81, N-((4-((5-chloropyrimidin-2-yl)oxy)-3-methylphenyl)carbamoyl)-2-methoxycyclopropane-1-carboxamide] was “Inactive”.
Still for that read-out and setting: the value for `COC1CC1C(=O)NC(=O)Nc1ccc(Oc2ccc(Cl)cn2)c(C)c1` (centres unmarked) [Compound 82, N-((4-((5-chloropyridin-2-yl)oxy)-3-methylphenyl)carbamoyl)-2-methoxycyclopropane-1-carboxamide] was “Inactive”.
In turn, `COC12CC(C(=O)NC(=O)Nc3ccc(Oc4nccs4)c(C)c3)(C1)C2` [Compound 83, 3-methoxy-N-((3-methyl-4-(thiazol-2-yloxy)phenyl)carbamoyl)bicyclo[1.1.1]pentane-1-carboxamide] gave an EC50 in the experiment on U87 cells (Homo sapiens, U-87 MG, 72 h) of 0.33 µM.
Same read-out and setting: the value for `COC12CC(C(=O)NC(=O)Nc3ccc(Oc4ccc(F)cn4)c(C)c3)(C1)C2` [Compound 89, N-((4-((5-fluoropyridin-2-yl)oxy)-3-methylphenyl)carbamoyl)-3-methoxybicyclo[1.1.1]pentane-1-carboxamide] was 0.2 µM.

The EC50 is the concentration needed to bring the measured effect to its halfway point.
